Reference: patent US10385065B2, “Antibacterial compounds” (priority 2014, dated 2019)
≈ marks a conversion by molar mass, not a printed value. Like-named read-outs stand apart in the source and are kept apart here.

Tests used:
Type in all cases: cell-based
[1] = tested on: Staphylococcus aureus ATCC 29213; assay: MIC, broth microdilution, S. aureus ATCC 29213
[2] = tested on: Escherichia coli ATCC 25922; assay: MIC, broth microdilution, E. coli ATCC 25922; conditions: ATCC25922, Table 1, wild type strain
[3] = tested on: S. aureus NRS482 MRSA FQ resistant; assay: MIC, S. aureus NRS482; conditions: Staphylococcus aureus; Table 2
[4] = tested on: S. aureus (MRSA) ATCC 43300; assay: MIC, S. aureus ATCC 43300; conditions: Staphylococcus aureus; Table 2; read-out: MIC S. aureus (MRSA) ATCC 43300 Heterogeneous MRSA strain
[5] = tested on: S. aureus NRS1 MRSA; assay: MIC, S. aureus NRS1; conditions: Staphylococcus aureus; Table 2; read-out: MIC S. aureus NRS1 MRSA AMG & TET resistant
[6] = tested on: S. aureus SACPX1-SP25 MSSA - FQ resistant; assay: microbe, parasite or virus in culture; conditions: Staphylococcus aureus, ATCC 29213 / MSSA, read-out: MIC S. aureus SACPX1-SP25 MSSA - FQ resistant (isogenic mutant of ATCC 29213)
[7] = tested on: S. aureus NRS127 MRSA LZD resistant; assay: MIC, S. aureus NRS127; conditions: Staphylococcus aureus; Table 2
[8] = tested on: S. aureus VRS1 MRSA VAN resistant; assay: MIC, S. aureus VRS1; conditions: Staphylococcus aureus, Table 2
[9] = tested on: S. epidermidis NRS101 MRSE; assay: MIC, S. epidermidis NRS101; conditions: Staphylococcus epidermidis; Table 2; read-out: MIC S. epidermidis NRS101 MRSE AMG, ERY resistant
[10] = tested on: Enterococcus faecium ATCC 19434; assay: MIC, E. faecium ATCC 19434; conditions: ATCC19434, Table 2
[11] = tested on: Haemophilus influenzae ATCC 49247; assay: MIC, H. influenzae ATCC 49247; conditions: ATCC49247, Table 4
[12] = tested on: Moraxella catarrhalis ATCC 25240; assay: MIC, M. catarrhalis ATCC 25240; conditions: ATCC25240, Table 4
[13] = tested on: Legionella pneumophila ATCC 33152; assay: microbe, parasite or virus in culture; conditions: ATCC33152, 48 h, read-out: MIC Legionella pneumophila ATCC 33152
[14] = tested on: Neisseria gonorrhoeae ATCC 49226; assay: MIC, N. gonorrhoeae ATCC 49226; conditions: ATCC49226, Table 4, 24 h incubation
[15] = tested on: Neisseria meningitidis ATCC 13090; assay: MIC, N. meningitidis ATCC 13090; conditions: ATCC13090, Table 4, 24 h incubation
[16] = tested on: human hepatic cell line (HepG2 ATCC HB-8065); assay: Human cell viability assay (CellTiter-Glo), HepG2; conditions: HepG2, 24 h incubation, tested over 1-128 μg/mL, read-out: IC50 values against HepG2
Outline: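 HepG2 seeded at 20,000 cells/well, then after 24 h given two-fold serial dilutions (1-128 μg/mL, 1% DMSO) in DMEM with 0.001% FBS and 0.3% albumin. After 24 h at 37 °C, ATP luminescence (CellTiter-Glo) read; IC50 is the concentration halving viability.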

[17] = tested on: S. aureus NRS100 MRSA; assay: MIC, S. aureus NRS100; conditions: Staphylococcus aureus; Table 2
[18] = ATCC29213, Table 1, wild type strain, read-out: MIC S. aureus ATCC 29213
[19] = ATCC 29213 / MSSA, Table 2, read-out: MIC S. aureus (MSSA) ATCC 29213 CLSI control strain

Structure (SMILES)	MIC [1, 18] [µg/mL]	MIC [1, 19] [µg/mL]	MIC [2] [µg/mL]	MIC [3] [µg/mL]	MIC [4] [µg/mL]	MIC [5] [µg/mL]	MIC [6] [µg/mL]	MIC [7] [µg/mL]	MIC [8] [µg/mL]	MIC [9] [µg/mL]	MIC [10] [µg/mL]	MIC [11] [µg/mL]	MIC [12] [µg/mL]	MIC [13] [µg/mL]	MIC [14] [µg/mL]	MIC [15] [µg/mL]	IC50 [16] [µg/mL]	MIC [17] [µg/mL]
Cc1c(-c2cc(F)c(N)cc2F)ccc2c3oc(CN)nc3c(=O)n(C3CC3)c12 [Compound 100, 7-(4-amino-2,5-difluoro-phenyl)-2-(aminomethyl)-5-cyclopropyl-6-methyl-oxazolo[4,5-c]quinolin-4-one]	< 1	< 1	< 1	< 1	< 1	< 1	< 1	1 to 10 (≈ 2.52 to 25.2 µM)	1 to 10 (≈ 2.52 to 25.2 µM)	< 1	1 to 10 (≈ 2.52 to 25.2 µM)	< 1	< 1	< 1	< 1	< 1	> 100	
Cc1nc2c(=O)n(C3CC3)c3c(C)c(-c4ccc(N)nc4)ccc3c2o1 [Compound 23, 7-(6-amino-3-pyridyl)-5-cyclopropyl-2,6-dimethyl-oxazolo[4,5-c]quinolin-4-one]	< 1	< 1	1 to 10 (≈ 2.89 to 28.9 µM)	1 to 10 (≈ 2.89 to 28.9 µM)	< 1	1 to 10 (≈ 2.89 to 28.9 µM)	1 to 10 (≈ 2.89 to 28.9 µM)	1 to 10 (≈ 2.89 to 28.9 µM)	10 to 100 (≈ 28.9 to 289 µM)	1 to 10 (≈ 2.89 to 28.9 µM)	> 100	1 to 10 (≈ 2.89 to 28.9 µM)			1 to 10 (≈ 2.89 to 28.9 µM)			
Cc1nc2c(=O)n(C3CC3)c3cc(N4CCC(CN)C4)c(F)cc3c2o1 (centres unmarked) [Compound 57, 7-[3-(aminomethyl)pyrrolidin-1-yl]-5-cyclopropyl-8-fluoro-2-methyl-oxazolo[4,5-c]quinolin-4-one]	< 1	< 1	1 to 10 (≈ 2.81 to 28.1 µM)	1 to 10 (≈ 2.81 to 28.1 µM)		1 to 10 (≈ 2.81 to 28.1 µM)	1 to 10 (≈ 2.81 to 28.1 µM)				10 to 100 (≈ 28.1 to 281 µM)	1 to 10 (≈ 2.81 to 28.1 µM)				1 to 10 (≈ 2.81 to 28.1 µM)	10 to 100 (≈ 28.1 to 281 µM)	
Cc1nc2c(=O)n3c4c(c(N5CCC(CN)C5)c(F)cc4c2o1)OC[C@@H]3C (stereo partly drawn) [Compound 88, (2S)-6-[3-(aminomethyl)pyrrolidin-1-yl]-7-fluoro-2,12-dimethyl-4,11-dioxa-1,13-diazatetracyclo[7.6.1.0^5,^16.0^10,^14]hexadeca-5(16),6,8,10(14),12-pentaen-15-one]	< 1	< 1	1 to 10 (≈ 2.69 to 26.9 µM)	1 to 10 (≈ 2.69 to 26.9 µM)	1 to 10 (≈ 2.69 to 26.9 µM)	1 to 10 (≈ 2.69 to 26.9 µM)	1 to 10 (≈ 2.69 to 26.9 µM)	1 to 10 (≈ 2.69 to 26.9 µM)	1 to 10 (≈ 2.69 to 26.9 µM)		10 to 100 (≈ 26.9 to 269 µM)	1 to 10 (≈ 2.69 to 26.9 µM)	1 to 10 (≈ 2.69 to 26.9 µM)	1 to 10 (≈ 2.69 to 26.9 µM)	1 to 10 (≈ 2.69 to 26.9 µM)	1 to 10 (≈ 2.69 to 26.9 µM)	10 to 100 (≈ 26.9 to 269 µM)	
Cc1c(-c2cnc3[nH]ncc3c2)ccc2c3ocnc3c(=O)n(C3CC3)c12 [Compound 20, 5-cyclopropyl-6-methyl-7-(1H-pyrazolo[3,4-b]pyridine-5-yl)oxazolo[4,5-c]quinolin-4-one]	< 1	< 1	1 to 10 (≈ 2.8 to 28 µM)	< 1	< 1	< 1	< 1	< 1	< 1	< 1	1 to 10 (≈ 2.8 to 28 µM)	< 1					> 100	
Cc1c(-c2cc(F)c(N)cc2F)ccc2c3scnc3c(=O)n(C3CC3)c12 [Compound 108, 7-(4-amino-2,5-difluorophenyl)-5-cyclopropyl-6-methyl-thiazolo[4,5-c]quinolin-4-one]	< 1	< 1	1 to 10 (≈ 2.61 to 26.1 µM)	< 1	< 1	< 1	< 1	< 1	< 1	< 1	10 to 100 (≈ 26.1 to 261 µM)	< 1					10 to 100 (≈ 26.1 to 261 µM)	
Cc1nc2c(=O)n3c4c(c(N5CC[C@@H](CN)C5)c(F)cc4c2o1)OC[C@@H]3C [Compound 90, (2S)-6-[(3S)-3-(aminomethyl)pyrrolidin-1-yl]-7-fluoro-2,12-dimethyl-4,11-dioxa-1,13-diazatetracyclo[7.6.1.0^5,^16.0^10,^14]hexadeca-5(16),6,8,10(14),12-pentaen-15-one]	< 1	< 1	1 to 10 (≈ 2.69 to 26.9 µM)	1 to 10 (≈ 2.69 to 26.9 µM)	< 1	1 to 10 (≈ 2.69 to 26.9 µM)	1 to 10 (≈ 2.69 to 26.9 µM)	1 to 10 (≈ 2.69 to 26.9 µM)	10 to 100 (≈ 26.9 to 269 µM)			1 to 10 (≈ 2.69 to 26.9 µM)	1 to 10 (≈ 2.69 to 26.9 µM)	1 to 10 (≈ 2.69 to 26.9 µM)			10 to 100 (≈ 26.9 to 269 µM)	
Cc1nc2c(=O)n(C3CC3)c3cc(N4CCC(C(C)N)C4)c(F)cc3c2o1 (centres unmarked) [Compound 54, 7-[3-(1-aminoethyl)pyrrolidin-1-yl]-5-cyclopropyl-8-fluoro-2-methyl-oxazolo[4,5-c]quinolin-4-one]	1 to 10 (≈ 2.7 to 27 µM)	1 to 10 (≈ 2.7 to 27 µM)	1 to 10 (≈ 2.7 to 27 µM)								10 to 100 (≈ 27 to 270 µM)	1 to 10 (≈ 2.7 to 27 µM)					10 to 100 (≈ 27 to 270 µM)	1 to 10 (≈ 2.7 to 27 µM)
C[C@H]1COc2c(-c3cc(F)c(N)cc3F)ccc3c4ocnc4c(=O)n1c23 [Compound 93, (2S)-6-(4-amino-2,5-difluorophenyl)-2-methyl-4,11-dioxa-1,13-diazatetracyclo[7.6.1.0^5,^16.0^10,^14]hexadeca-5(16),6,8,10(14),12-pentaen-15-one]	1 to 10 (≈ 2.71 to 27.1 µM)	1 to 10 (≈ 2.71 to 27.1 µM)	1 to 10 (≈ 2.71 to 27.1 µM)	1 to 10 (≈ 2.71 to 27.1 µM)	< 1		1 to 10 (≈ 2.71 to 27.1 µM)		1 to 10 (≈ 2.71 to 27.1 µM)		10 to 100 (≈ 27.1 to 271 µM)	< 1	1 to 10 (≈ 2.71 to 27.1 µM)	< 1	< 1		> 100	
Cc1nc2c(=O)n3c4c(c(N5CC[C@H](CN)C5)c(F)cc4c2o1)OC[C@@H]3C [Compound 89, (2S)-6-[(3R)-3-(aminomethyl)pyrrolidin-1-yl]-7-fluoro-2,12-dimethyl-4,11-dioxa-1,13-diazatetracyclo[7.6.1.0^5,^16.0^10,^14]hexadeca-5(16),6,8,10(14),12-pentaen-15-one]	1 to 10 (≈ 2.69 to 26.9 µM)	1 to 10 (≈ 2.69 to 26.9 µM)	1 to 10 (≈ 2.69 to 26.9 µM)	1 to 10 (≈ 2.69 to 26.9 µM)	1 to 10 (≈ 2.69 to 26.9 µM)	1 to 10 (≈ 2.69 to 26.9 µM)	1 to 10 (≈ 2.69 to 26.9 µM)	10 to 100 (≈ 26.9 to 269 µM)	1 to 10 (≈ 2.69 to 26.9 µM)		10 to 100 (≈ 26.9 to 269 µM)	1 to 10 (≈ 2.69 to 26.9 µM)		1 to 10 (≈ 2.69 to 26.9 µM)			10 to 100 (≈ 26.9 to 269 µM)	
